Measured values as given in paper PMC5714945, “A homologue of the Parkinson’s disease-associated protein LRRK2 undergoes a monomer-dimer transition during GTP turnover” (Nature Communications, 2017).

Key:
Assay type in all cases: binding
CtRoc-COR [1] = molecular target: T1, CtRoc-COR (Chlorobaculum tepidum, UniProt Q8KC98); assay: SEC-SAXS (conformational change); details: pre-incubated with 1 mM, pH 7.5, 5 mM MgCl2
T1 construct: gene CT1526; Roc-COR domains, residues 412-946, N-terminal His-tag (pProEX), E. coli BL21(DE3); dimer nucleotide-free, about 65 kDa monomer
T1 sequence (Q8KC98 412-946): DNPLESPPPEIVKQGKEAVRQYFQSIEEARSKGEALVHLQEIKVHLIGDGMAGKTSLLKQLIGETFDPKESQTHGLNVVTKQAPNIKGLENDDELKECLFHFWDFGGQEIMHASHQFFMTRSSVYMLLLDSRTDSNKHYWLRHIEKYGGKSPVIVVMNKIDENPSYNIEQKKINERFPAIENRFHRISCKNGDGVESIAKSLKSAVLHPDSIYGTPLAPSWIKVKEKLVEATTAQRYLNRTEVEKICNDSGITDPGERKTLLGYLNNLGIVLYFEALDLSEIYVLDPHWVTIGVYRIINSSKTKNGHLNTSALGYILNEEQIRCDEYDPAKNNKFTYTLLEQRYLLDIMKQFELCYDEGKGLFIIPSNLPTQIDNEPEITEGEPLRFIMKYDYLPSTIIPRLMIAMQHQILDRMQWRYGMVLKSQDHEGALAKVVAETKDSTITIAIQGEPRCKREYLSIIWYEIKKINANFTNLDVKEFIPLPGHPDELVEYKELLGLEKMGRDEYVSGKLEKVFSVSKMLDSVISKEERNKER

CtRoco [2] = molecular target: T2, CtRoco (Chlorobaculum tepidum, UniProt Q8KC98); assay: SEC-SAXS, AUC, negative-stain EM (conformational and oligomeric change); details: pre-incubated with 1 mM (SAXS, EM), pH 7.5, 5 mM MgCl2
T2 construct: gene CT1526; full length, residues 1-1102, N-terminal His-tag (pProEX), E. coli BL21(DE3); dimer nucleotide-free, monomer/dimer equilibrium with GppNHp
T2 sequence (Q8KC98 1-1102): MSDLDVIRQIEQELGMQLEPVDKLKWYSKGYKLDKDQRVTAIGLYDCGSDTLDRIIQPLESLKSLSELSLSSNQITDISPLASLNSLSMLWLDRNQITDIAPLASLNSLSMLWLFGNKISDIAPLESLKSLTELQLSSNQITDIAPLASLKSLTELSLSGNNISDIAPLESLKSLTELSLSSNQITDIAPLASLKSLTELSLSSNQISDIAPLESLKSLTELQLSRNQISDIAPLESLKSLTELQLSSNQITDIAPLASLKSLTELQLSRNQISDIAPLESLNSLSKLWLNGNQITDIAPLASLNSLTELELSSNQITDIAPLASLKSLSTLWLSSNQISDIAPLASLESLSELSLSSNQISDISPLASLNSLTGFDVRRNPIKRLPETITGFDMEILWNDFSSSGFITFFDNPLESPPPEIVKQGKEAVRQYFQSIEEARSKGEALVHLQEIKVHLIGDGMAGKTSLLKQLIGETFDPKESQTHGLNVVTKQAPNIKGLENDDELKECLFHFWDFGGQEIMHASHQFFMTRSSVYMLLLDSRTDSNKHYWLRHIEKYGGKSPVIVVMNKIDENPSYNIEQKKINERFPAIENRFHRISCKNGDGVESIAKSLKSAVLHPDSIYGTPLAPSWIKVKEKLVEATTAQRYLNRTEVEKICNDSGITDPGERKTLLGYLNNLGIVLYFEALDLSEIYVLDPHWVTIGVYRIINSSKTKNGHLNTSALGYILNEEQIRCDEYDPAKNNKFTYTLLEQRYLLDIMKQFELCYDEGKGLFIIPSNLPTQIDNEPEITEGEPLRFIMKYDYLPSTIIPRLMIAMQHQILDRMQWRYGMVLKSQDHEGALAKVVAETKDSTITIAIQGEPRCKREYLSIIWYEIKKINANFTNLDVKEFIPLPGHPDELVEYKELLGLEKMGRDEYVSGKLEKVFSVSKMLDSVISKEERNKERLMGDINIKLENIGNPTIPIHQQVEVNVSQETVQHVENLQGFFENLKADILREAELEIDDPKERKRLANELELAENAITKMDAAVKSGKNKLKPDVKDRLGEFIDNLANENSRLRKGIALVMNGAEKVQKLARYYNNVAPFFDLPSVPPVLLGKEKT

CtRoco [3] = molecular target: T2, CtRoco; assay: SEC-SAXS, SEC-MALS, native MS, AUC, negative-stain EM (oligomeric shift); details: pre-incubated with 1 mM (SAXS, MALS, EM), pH 7.5, 5 mM MgCl2
CtRoc-COR [4] = molecular target: T1, CtRoc-COR; assay: SEC-SAXS, SEC-MALS, native MS, SV-AUC (oligomeric shift); details: pre-incubated with 1 mM (SAXS, MALS), pH 7.5, 5 mM MgCl2
CtRoc-COR [5] = molecular target: T3, CtRoc-COR (Chlorobaculum tepidum, UniProt Q8KC98, S928C, form not given); assay: stopped-flow Cy3/Cy5 FRET, monomerization; details: 50 µM or 1 µM GTP, Cy3/Cy5-labelled protein, 25 °C
T3 construct: gene CT1526; Roc-COR domains, residues 412-946, N-terminal His-tag (pProEX), E. coli BL21(DE3); dimer nucleotide-free, about 65 kDa monomer
T3 sequence (Q8KC98 entry or part of it S928C, form open): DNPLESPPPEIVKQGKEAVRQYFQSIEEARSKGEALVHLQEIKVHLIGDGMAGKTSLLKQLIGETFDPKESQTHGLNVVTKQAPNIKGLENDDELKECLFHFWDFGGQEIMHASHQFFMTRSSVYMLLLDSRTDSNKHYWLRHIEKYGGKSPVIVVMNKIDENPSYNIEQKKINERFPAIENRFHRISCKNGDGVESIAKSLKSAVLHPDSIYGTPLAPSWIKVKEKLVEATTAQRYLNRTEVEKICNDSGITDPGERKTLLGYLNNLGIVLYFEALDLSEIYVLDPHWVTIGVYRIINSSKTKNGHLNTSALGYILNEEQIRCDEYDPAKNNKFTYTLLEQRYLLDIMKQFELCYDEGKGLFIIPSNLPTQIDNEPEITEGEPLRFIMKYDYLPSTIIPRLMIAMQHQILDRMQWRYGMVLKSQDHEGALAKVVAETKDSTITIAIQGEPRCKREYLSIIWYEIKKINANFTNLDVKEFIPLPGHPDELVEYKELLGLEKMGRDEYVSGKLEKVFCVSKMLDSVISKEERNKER

Question: Which “SEC-SAXS (conformational change)” value (CtRoc-COR [1]) does the source give for `Nc1nc2c(ncn2[C@@H]2O[C@H](COP(=O)(O)OP(=O)(O)O)[C@@H](O)[C@H]2O)c(=O)[nH]1` [GDP] here?
Answer: The value was “when CtRoc-COR is saturated with either GDP or GppNHp conformational changes are taking place”.

Question: What about the “SEC-SAXS, AUC, negative-stain EM (conformational and oligomeric change)” value (CtRoco [2]) of the same compound?
Answer: The value was “conformational changes occur in both the CtRoco GppNHp- and GDP-bound states”.

Question: For `Nc1nc2c(ncn2[C@@H]2O[C@H](COP(=O)(O)OP(=O)(O)NP(=O)(O)O)[C@@H](O)[C@H]2O)c(=O)[nH]1` [GppNHp], which “SEC-SAXS, SEC-MALS, native MS, AUC, negative-stain EM (oligomeric shift)” value (CtRoco [3]) is on record?
Answer: The value was “As for CtRoc-COR this indicates that GppNHp induces monomerization”.

Question: And the “SEC-SAXS, SEC-MALS, native MS, SV-AUC (oligomeric shift)” value (CtRoc-COR [4])?
Answer: The value was “the GTP mimic GppNHp induces monomerization in a concentration dependent manner”.

Question: How did the “stopped-flow Cy3/Cy5 FRET, monomerization” value (CtRoc-COR [5]) turn out when `Nc1nc2c(ncn2[C@@H]2O[C@H](COP(=O)(O)OP(=O)(O)OP(=O)(O)O)[C@@H](O)[C@H]2O)c(=O)[nH]1` [GTP] was run?
Answer: Its value is “a fast decrease in FRET signal is observed upon mixing the protein”.
